Experimental data as given in PubChem BioAssay (NCI).
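Compound exposure: 48 hours, 5 concentrations, 96-well plates. Definition used: TGI = concentration required for complete inhibition of growth.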

Key:
Assay in all cases: NCI tumour cell line growth inhibition, 48 h
HT29 colon = tested on: HT29 colon
TK-10 renal = tested on: TK-10 renal
IGROV1 ovarian = tested on: IGROV1 ovarian
RPMI-8226 leukemia = tested on: RPMI-8226 leukemia
SN12C renal = tested on: SN12C renal
A498 renal = tested on: A498 renal
RXF 393 renal = tested on: RXF 393 renal

Row | Compound | TGI (HT29 colon) [µM] | TGI (TK-10 renal) [µM] | TGI (IGROV1 ovarian) [µM] | TGI (RPMI-8226 leukemia) [µM] | TGI (SN12C renal) [µM] | TGI (A498 renal) [µM] | TGI (RXF 393 renal) [µM]
1 | O=C(/C=C/c1ccc(Cl)c(Cl)c1)c1cccc2ccccc12 | 12.1 | 30.5 | 24.8 | 8.53 | 31.8 | 38 | 
2 | CC1=C(C(=O)Nc2ccc(Cl)c(Cl)c2)C(c2ccc([N+](=O)[O-])cc2)C(C(=O)Nc2ccc(Cl)c(Cl)c2)=C(C)N1 | 7.55 | 55 | 14.8 | 8.63 | 7.3 | 14.8 | 6.16
3 | N#CCN1C(=O)c2cc([N+](=O)[O-])cc3cc([N+](=O)[O-])cc(c23)C1=O | > 69.2 | > 79.9 | 18.3 | > 38.3 | 27.9 | > 100 | 21.3
4 | O=C1c2ccccc2N2OC3(N4CCCC4)CCCCC3C12c1ccccc1 (stereo not given) | 52.6 |  | > 100 | > 100 | 30.5 | > 100 | 39.4
5 | CCCC(S(=O)(=O)c1ccccc1)S(=O)(=O)c1ccccc1 | > 100 | > 100 | > 100 | > 100 |  | > 100 | > 100
6 | O=C1C=C(O)C(=Cc2c(O)cc(O)cc2O)C(O)=C1 | > 100 | > 100 | > 100 | > 100 | > 100 | > 100 | > 100
7 | N#CNc1nc(N)c(-c2ccc(Cl)cc2)c(C(=O)Nc2nccs2)n1 | > 100 | > 100 | > 100 | > 100 | > 100 | > 100 | > 100
8 | COc1ccc(-c2cc(=O)c3c(O)cccc3o2)c(OC)c1OC | > 100 | > 100 | > 100 | > 100 | > 100 | 82.9 | > 100
9 | Cc1cc2c(c(C(N)=O)c1C)-c1cc(Cl)cc(Cl)c1C2=O | > 100 | > 100 | > 100 | > 100 | > 100 | > 100 | > 100
10 | O=C1OC(=O)c2c1c(-c1ccccc1)nc1ccccc21 | > 100 | > 100 | > 100 | > 100 | > 100 | > 100 | > 100
11 | O=Cc1ccc2c(c1I)OCO2 | > 100 | > 100 | > 100 | > 100 | > 100 | > 100 | 
12 | ClC1=C(Cl)C(Cl)(Cl)c2c3c(c4c(c21)C(Cl)(Cl)C(Cl)=C4Cl)C(Cl)(Cl)C(Cl)=C3Cl | > 100 |  | > 100 | > 100 | > 100 |  | 
13 | c1ccc2c(c1)CCc1c-2n[nH]c1-c1[nH]nc2c1CCc1ccccc1-2 | > 100 | > 100 | > 100 |  | > 100 | > 100 | 
14 | NC1=NC(=O)C(CC(=O)Nc2ccc(Cl)cc2Cl)S1 (stereo not given) | > 100 | > 100 | > 100 | > 100 | > 100 | > 100 | 
15 | Cc1cc(=O)c2c(O)cc3c(c2o1)CC=C(COC1OC(COC2OC(CO)C(O)C(O)C2O)C(O)C(O)C1O)CO3 (stereo not given) |  | > 100 | > 100 |  | > 100 |  | 
16 | N[C@H](COCc1ccccc1)c1ccccc1 | > 93.9 | > 100 | > 100 | 45.2 | > 81.6 | 88.2 | > 72.6
17 | O=C(Cc1nc2ccccc2o1)C(=O)Nc1cccc(C(F)(F)F)c1 | > 100 | > 100 | > 100 | > 100 | > 100 | > 100 | 
18 | CC1=C(CC2C(=O)N(c3ccccc3)S(=O)(=O)NC2C)C(=O)N(c2ccccc2)S(=O)(=O)N1C (stereo not given) | > 100 | > 100 | > 100 | > 100 | > 100 |  | 
19 | CCOC(=O)/C(I)=C/c1cc(OC)c(OC)c(OC)c1 | 15.1 | 35.1 | 93.7 | 21.1 | 24.6 | 91.3 | 
20 | COc1cc(C2(C)SCCCS2)cc(OC)c1OC | > 100 | > 100 | > 100 | > 100 | > 100 | > 100 | 
21 | CCOC(=O)C1Nc2ccccc2[C@H]2OCC[C@@H]12 (stereo not given in full) | > 100 | > 100 | > 100 |  | > 100 | > 100 | > 100
22 | O=C(NCCNCCO)c1cccc2ccc(-c3ccccc3)nc12 | 14.6 | 6.72 | 13.2 |  | 17.6 | 8.41 | 15.5
23 | COc1ccc(OC(=O)CC2Cc3cc(OC)c(OC)c(OC)c3-c3ccc(SC)c(=O)cc32)cc1 (stereo not given) | > 100 | > 100 | > 100 | 14.4 | > 71.8 | 2.57 | 
24 | CC(C)(C)c1cc2nc(c1)C(C(F)(F)F)(C(F)(F)F)OB(Br)OC2(C(F)(F)F)C(F)(F)F | 12.1 | 5.5 | 8.83 | 3.76 | 7.26 |  | 22
